Experimental data taken from US20090197859A1 (Pfizer Inc., priority 2008, published 2009).
Counter-ions that a name gives are not always drawn.

SMILES | melting point
CN1CCC(c2cccc(C(=O)N3CCC(Oc4cccc(F)c4)CC3)n2)C1 (stereo not shown) (as salt: hydrochloride) [Example 16, [4-(3-Fluoro-phenoxy)-piperidin-1-yl]-[6-(1-methyl-pyrrolidin-3-yl)-pyridin-2-yl]-methanone] | 85 to 86 °C
CN1CCN(c2cccc(C(=O)N3CC=C(c4ccccc4F)CC3)n2)CC1 (as salt: hydrochloride) [Example 21, [4-(2-Fluoro-phenyl)-3,6-dihydro-2H-pyridin-1-yl]-[6-(4-methyl-piperazin-1-yl)-pyridin-2-yl]-methanone] | 176.7 to 177.2 °C
Cc1cccc(F)c1C1CCN(C(=O)c2cccc(N3CCN(C)CC3)n2)CC1 (as salt: hydrochloride) [Example 23, [4-(2-Fluoro-6-methyl-phenyl)-piperidin-1-yl]-[6-(4-methyl-piperazin-1-yl)-pyridin-2-yl]-methanone] | 163 to 164.7 °C
Cc1ccccc1C1CCCCN1C(=O)c1cccc(N2CCNCC2)n1 (stereo not shown) (as salt: hydrochloride) [Example 26, (6-Piperazin-1-yl-pyridin-2-yl)-(2-o-tolyl-piperidin-1-yl)-methanone] | 105.6 to 106 °C
O=C(c1cccc(N2CCCNCC2)n1)N1CC[C@H](Oc2ccccc2F)C1 (as salt: hydrochloride) [Example 30, (6-[1,4]Diazepan-1-yl-pyridin-2-yl)-[(S)-3-(2-fluoro-phenoxy)-pyrrolidin-1-yl]-methanone] | 75 to 77 °C

Next, values leading:

melting point | SMILES
106 to 108 °C | CN1CCCN(c2cccc(C(=O)N3CC[C@@H](Oc4ccccc4F)C3)n2)CC1 (as salt: hydrochloride) [Example 46, [(R)-3-(2-Fluoro-phenoxy)-pyrrolidin-1-yl]-[6-(4-methyl-[1,4]diazepan-1-yl)-pyridin-2-yl]-methanone]
211 to 212.2 °C | O=S(=O)(c1cccc(N2CCNCC2)n1)N1CCC(c2ccccc2F)CC1 (as salt: hydrochloride) [Example 51, 1-{6-[4-(2-Fluoro-phenyl)-piperidine-1-sulfonyl]-pyridin-2-yl}-piperazine]
94 to 96 °C | Cc1ccccc1O[C@@H]1CCN(C(=O)c2cccc(N3CCCN(C)CC3)n2)C1 (as salt: hydrochloride) [Example 53, [6-(4-Methyl-[1,4]diazepan-1-yl)-pyridin-2-yl]-((R)-3-o-tolyloxy-pyrrolidin-1-yl)-methanone]
203 to 204.5 °C | Cc1ccccc1C1CCN(S(=O)(=O)c2cccc(N3CCN(C)CC3)n2)CC1 (as salt: hydrochloride) [Example 78, 1-Methyl-4-[6-(4-o-tolyl-piperidine-1-sulfonyl)-pyridin-2-yl]-piperazine]
118 to 120 °C | Cc1ccccc1OC1CCN(C(=O)c2cccc(C3CCN(C)CC3)n2)CC1 (as salt: hydrochloride) [Example 95, (1′-Methyl-1′,2′,3′,4′,5′,6′-hexahydro-[2,4′]bipyridinyl-6-yl)-(4-o-tolyloxy-piperidin-1-yl)-methanone]
